# From patent publication US8846685B2, “Human protein tyrosine phosphatase inhibitors and methods of use” (Aerpio Therapeutics Inc., priority 2006, dated 2014)
# Target: T1, PTP1B (Homo sapiens, UniProt P18031)
# T1 sequence (P18031 1-435): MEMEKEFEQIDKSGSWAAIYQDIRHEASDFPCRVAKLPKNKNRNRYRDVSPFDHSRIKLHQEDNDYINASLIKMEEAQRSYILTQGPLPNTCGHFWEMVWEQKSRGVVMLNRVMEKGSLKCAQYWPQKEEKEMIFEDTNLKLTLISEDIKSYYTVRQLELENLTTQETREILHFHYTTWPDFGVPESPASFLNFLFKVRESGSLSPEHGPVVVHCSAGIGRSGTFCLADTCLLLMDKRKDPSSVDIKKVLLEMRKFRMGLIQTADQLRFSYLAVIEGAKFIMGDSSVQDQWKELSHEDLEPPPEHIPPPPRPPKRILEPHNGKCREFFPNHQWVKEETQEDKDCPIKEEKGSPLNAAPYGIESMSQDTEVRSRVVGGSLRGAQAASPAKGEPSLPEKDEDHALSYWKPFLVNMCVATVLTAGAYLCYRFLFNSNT
# Experiment: PTP1B activity (IC50)
# Assay type: biochemical
row,SMILES,IC50
1,COC(=O)N[C@@H](Cc1ccccc1)C(=O)N[C@@H](Cc1ccc(NS(=O)(=O)O)cc1)c1nc(-c2ccsc2)cs1 [compound 73],900 nM
2,COC(=O)N[C@@H](Cc1ccccc1)C(=O)N[C@@H](Cc1ccc(NS(=O)(=O)O)cc1)c1cscn1 [compound 76],370 nM
3,COC(=O)N[C@@H](Cc1ccccc1)C(=O)N[C@@H](Cc1ccc(NS(=O)(=O)O)cc1)c1csc(-c2ccc(-c3ccccn3)s2)n1 [compound 77],510 nM
4,COC(=O)N[C@@H](Cc1ccccc1)C(=O)N[C@@H](Cc1ccc(NS(=O)(=O)O)cc1)c1nc(C)c(-c2ccccc2)s1 [compound 78],170 nM
5,COC(=O)N[C@@H](Cc1ccccc1)C(=O)N[C@@H](Cc1ccc(NS(=O)(=O)O)cc1)c1nc2ccccc2s1 [compound 79],740 nM

# Now from value to compound:
row,IC50,SMILES
1,300 nM,CCc1csc([C@H](Cc2ccc(NS(=O)(=O)O)cc2)NC(=O)[C@H](Cc2ccccc2)NC(=O)CNC(=O)OC)n1 [compound 80]
2,640 nM,CCc1cnc([C@H](Cc2ccc(NS(=O)(=O)O)cc2)NC(=O)[C@H](Cc2ccccc2)N(C)C(=O)OC)s1 [compound 81]
3,700 nM,CCc1nc([C@H](Cc2ccc(NS(=O)(=O)O)cc2)NC(=O)[C@H](Cc2ccccc2)N(C)C(=O)OC)cs1 [compound 82]
4,13200 nM,COC(=O)N(C)[C@@H](Cc1ccccc1)C(=O)N[C@@H](Cc1ccc(NS(=O)(=O)O)cc1)c1csc(-c2cccs2)n1 [compound 83]
